Structures are written as SMILES. pIC50: −log10 of the molar value.

The assay concerns the target T1, human chemokine receptor 2 isoform B (CCR2) (Homo sapiens, UniProt P41597).
T1 sequence (P41597 1-360 isoform P41597-2): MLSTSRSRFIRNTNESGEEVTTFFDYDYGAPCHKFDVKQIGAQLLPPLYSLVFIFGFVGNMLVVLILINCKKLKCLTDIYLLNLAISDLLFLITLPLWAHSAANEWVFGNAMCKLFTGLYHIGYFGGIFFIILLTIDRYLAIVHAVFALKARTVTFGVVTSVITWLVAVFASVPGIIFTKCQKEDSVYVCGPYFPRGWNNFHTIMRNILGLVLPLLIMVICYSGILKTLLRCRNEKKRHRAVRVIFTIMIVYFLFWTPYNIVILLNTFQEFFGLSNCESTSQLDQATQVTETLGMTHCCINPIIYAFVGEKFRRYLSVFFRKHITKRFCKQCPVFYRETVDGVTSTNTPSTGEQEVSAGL
Kind of assay: Calcium mobilization assay (FLIPR, MCP-1 stimulated CHOK1-CCR2B-A5 cells). It is filed as cell-based. Particulars: Ca mobilisation assay, CCR2 antagonist activity, inhibition of MCP-1 induced calcium increase. A digest of the protocol: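 Fluo-4-loaded CHOK1 cells stably expressing human CCR2B were preincubated with compound 20-30 min at 30 °C in DMEM/Hepes/probenecid/0.1% BSA buffer with 0.5% DMSO, then challenged with […] MCP-1. FLIPR calcium signal (max minus basal) gave IC50; agonism also monitored.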
Broadly, the pIC50 is −log10 of the IC50, conventionally taken in molar units. In the case of `COC[C@H](CCN1CCC2(CC2)[C@H](O)C1)N1CCN(C(=O)Nc2cccc(Cl)c2)[C@@H](C)C1=O` [Example 82, (S)-4-[(S)-3-((S)-4-Hydroxy-6-aza-spiro[2.5]oct-6-yl)-1-methoxymethyl-propyl]-2-methyl-3-oxo-piperazine-1-carboxylic acid (3-chloro-phenyl)-amide], the pIC50 is 8.40.

With `COC[C@H](CCN1CCC2(CC2)[C@H](O)C1)N1CCN(C(=O)Nc2cccc(F)c2)[C@@H](C)C1=O` [Example 83, (S)-4-[(S)-3-((S)-4-Hydroxy-6-aza-spiro[2.5]oct-6-yl)-1-methoxymethyl-propyl]-2-methyl-3-oxo-piperazine-1-carboxylic acid (3-fluoro-phenyl)-amide], the pIC50 is 8.05.

As for `COC[C@H](CCN1CCC2(CC2)[C@H](O)C1)N1CCN(C(=O)Nc2ccccc2)[C@@H](C)C1=O` [Example 84, (S)-4-[(S)-3-((S)-4-Hydroxy-6-aza-spiro[2.5]oct-6-yl)-1-methoxymethyl-propyl]-2-methyl-3-oxo-piperazine-1-carboxylic acid phenylamide], the pIC50 was 7.38.

Regarding `COC[C@H](CCN1CCC2(CC2)[C@H](O)C1)N1CCN(C(=O)Nc2cccc(Cl)c2)[C@H](C)C1=O` [Example 85, (R)-4-[(S)-3-((S)-4-Hydroxy-6-aza-spiro[2.5]oct-6-yl)-1-methoxymethyl-propyl]-2-methyl-3-oxo-piperazine-1-carboxylic acid (3-chloro-phenyl)-amide], the pIC50 was 6.74.

With `C[C@H]1C(=O)N([C@@H](CCN2CCCCC2)COC(=O)Nc2ccc(Cl)c(Cl)c2)CCN1C(=O)Nc1ccc(Cl)c(Cl)c1` [Example 86, (3,4-Dichloro-phenyl)-carbamic acid (S)-2-[(S)-4-(3,4-dichloro-phenylcarbamoyl)-3-methyl-2-oxo-piperazin-1-yl]-4-piperidin-1-yl-butyl ester], the pIC50 was 6.72.

Regarding `C[C@H]1C(=O)N(CCCCN2CCC3(CC3)[C@H](O)C2)CCN1C(=O)Nc1cccc(Cl)c1` [Example 87, (S)-4-[4-((S)-4-Hydroxy-6-aza-spiro[2.5]oct-6-yl)-butyl]-2-methyl-3-oxo-piperazine-1-carboxylic acid (3-chloro-phenyl)-amide], the pIC50 is 8.30.

With `C[C@H]1C(=O)N(CCCCN2CCC3(CC3)[C@H](O)C2)CCN1C(=O)Nc1ccc(C(F)(F)F)cc1` [Example 88, (S)-4-[4-((S)-4-Hydroxy-6-aza-spiro[2.5]oct-6-yl)-butyl]-2-methyl-3-oxo-piperazine-1-carboxylic acid (4-trifluoromethyl-phenyl)-amide], the pIC50 is 7.01.

`C[C@H]1C(=O)N(CCCCN2CCC3(CC3)[C@H](O)C2)CCN1C(=O)Nc1cccc(C(F)(F)F)c1` [Example 89, (S)-4-[4-((S)-4-Hydroxy-6-aza-spiro[2.5]oct-6-yl)-butyl]-2-methyl-3-oxo-piperazine-1-carboxylic acid (3-trifluoromethyl-phenyl)-amide]: the pIC50 is 7.60.

Take `C[C@H]1C(=O)N(CCCCN2CCC3(CC3)[C@H](O)C2)CCN1C(=O)Nc1ccc(Cl)c(Cl)c1` [Example 90, (S)-4-[4-((S)-4-Hydroxy-6-aza-spiro[2.5]oct-6-yl)-butyl]-2-methyl-3-oxo-piperazine-1-carboxylic acid (3,4-dichloro-phenyl)-amide]: the pIC50 is 9.00.

On to `C[C@H]1C(=O)N(CCCCN2CCC3(CC3)[C@H](O)C2)CCN1C(=O)Nc1ccc2ccccc2c1` [Example 91, (S)-4-[4-((S)-4-Hydroxy-6-aza-spiro[2.5]oct-6-yl)-butyl]-2-methyl-3-oxo-piperazine-1-carboxylic acid naphthalen-2-ylamide], for which the pIC50 is 8.22.

Turning to `C[C@H]1C(=O)N(CCCCN2CCC3(CC3)[C@H](O)C2)CCN1C(=S)Oc1ccc2ccccc2c1` [Example 92, (S)-4-[4-((S)-4-Hydroxy-6-aza-spiro[2.5]oct-6-yl)-butyl]-2-methyl-3-oxo-piperazine-1-carbothioic acid O-naphthalen-2-yl ester], the pIC50 is 6.20.

As to `C[C@H]1C(=O)N(CCCCN2CCC3(CC3)[C@H](O)C2)CCN1C(=O)Nc1cccc(-c2ccccc2)c1` [Example 93, (S)-4-[4-((S)-4-Hydroxy-6-aza-spiro[2.5]oct-6-yl)-butyl]-2-methyl-3-oxo-piperazine-1-carboxylic acid biphenyl-3-ylamide], the pIC50 was 8.70.

Take `C[C@H]1C(=O)N(CCCCN2CCC3(CC3)[C@H](O)C2)CCN1C(=O)Nc1cccc(-c2cccnc2)c1` [Example 94, (S)-4-[4-((S)-4-Hydroxy-6-aza-spiro[2.5]oct-6-yl)-butyl]-2-methyl-3-oxo-piperazine-1-carboxylic acid (3-pyridin-3-yl-phenyl)-amide]: the negative-log IC50 (pIC50) is 6.53.

Take `C[C@H]1C(=O)N(CCCCN2CCC3(CC3)[C@H](O)C2)CCN1C(=O)Nc1cccc(-c2ccncc2)c1` [Example 95, (S)-4-[4-((S)-4-Hydroxy-6-aza-spiro[2.5]oct-6-yl)-butyl]-2-methyl-3-oxo-piperazine-1-carboxylic acid (3-pyridin-4-yl-phenyl)-amide]: the pIC50 is 6.25.

As to `C[C@H]1C(=O)N(CCCCN2CCC3(CC3)[C@H](O)C2)CCN1C(=O)Nc1ccc(C(F)(F)F)cn1` [Example 99, (S)-4-[4-((S)-4-Hydroxy-6-aza-spiro[2.5]oct-6-yl)-butyl]-2-methyl-3-oxo-piperazine-1-carboxylic acid (5-trifluoromethyl-pyridin-2-yl)-amide], the negative logarithm of the IC50 (pIC50) was 7.62.

For the molecule `C[C@H]1C(=O)N(CCCCN2CCC3(CC3)[C@H](O)C2)CCN1C(=O)Nc1cccc(C(F)(F)F)n1` [Example 101, (S)-4-[4-((S)-4-Hydroxy-6-aza-spiro[2.5]oct-6-yl)-butyl]-2-methyl-3-oxo-piperazine-1-carboxylic acid (6-trifluoromethyl-pyridin-2-yl)-amide], the pIC50 is 6.50.

On to `C[C@H]1C(=O)N(CCN2CCC3(CC3)[C@H](O)C2)CCN1C(=O)Nc1ccc(Cl)c(Cl)c1` [Example 104, (S)-4-[2-((S)-4-Hydroxy-6-aza-spiro[2.5]oct-6-yl)-ethyl]-2-methyl-3-oxo-piperazine-1-carboxylic acid (3,4-dichloro-phenyl)-amide], for which the pIC50 was 6.42.

As for `C[C@H]1C(=O)N([C@H](CO)CCN2CCC3(CC3)[C@H](O)C2)CCN1C(=O)Nc1ccc(Cl)c(Cl)c1` [Example 106, (S)-4-[(S)-3-((S)-4-Hydroxy-6-aza-spiro[2.5]oct-6-yl)-1-hydroxymethyl-propyl]-2-methyl-3-oxo-piperazine-1-carboxylic acid (3,4-dichloro-phenyl)-amide], the pIC50 was 9.00.

On to `C[C@H]1C(=O)N([C@H](CO)CCN2CCC3(CC3)[C@H](O)C2)CCN1C(=O)Nc1cccc(Cl)c1` [Example 107, (S)-4-[(S)-3-((S)-4-Hydroxy-6-aza-spiro[2.5]oct-6-yl)-1-hydroxymethyl-propyl]-2-methyl-3-oxo-piperazine-1-carboxylic acid (3-chloro-phenyl)-amide], for which the pIC50 is 8.70.

Take `CC(=O)OC[C@H](CCN1CCC2(CC2)[C@H](O)C1)N1CCN(C(=O)Nc2ccc(Cl)c(Cl)c2)[C@@H](C)C1=O` [Example 108, Acetic acid (S)-2-[(S)-4-(3,4-dichloro-phenylcarbamoyl)-3-methyl-2-oxo-piperazin-1-yl]-4-((S)-4-hydroxy-6-aza-spiro[2.5]oct-6-yl)-butyl ester]: the pIC50 is 8.70.

Consider `CC(=O)OC[C@H](CCN1CCC2(CC2)[C@H](O)C1)N1CCN(C(=O)Nc2cccc(Cl)c2)[C@@H](C)C1=O` [Example 109, Acetic acid (S)-2-[(S)-4-(3-chloro-phenylcarbamoyl)-3-methyl-2-oxo-piperazin-1-yl]-4-((S)-4-hydroxy-6-aza-spiro[2.5]oct-6-yl)-butyl ester], for which the pIC50 is 8.00.

For `COC(=O)OC[C@H](CCN1CCC2(CC2)[C@H](O)C1)N1CCN(C(=O)Nc2cccc(Cl)c2)[C@@H](C)C1=O` [Example 110, Carbonic acid (S)-2-[(S)-4-(3-chloro-phenylcarbamoyl)-3-methyl-2-oxo-piperazin-1-yl]-4-((S)-4-hydroxy-6-aza-spiro[2.5]oct-6-yl)-butyl ester methyl ester], the pIC50 is 8.30.

With `CCNC(=O)OC[C@H](CCN1CCC2(CC2)[C@H](O)C1)N1CCN(C(=O)Nc2cccc(Cl)c2)[C@@H](C)C1=O` [Example 111, Ethyl-carbamic acid (S)-2-[(S)-4-(3-chloro-phenylcarbamoyl)-3-methyl-2-oxo-piperazin-1-yl]-4-((S)-4-hydroxy-6-aza-spiro[2.5]oct-6-yl)-butyl ester], the pIC50 was 7.77.

For the molecule `COC(=O)OC[C@H](CCN1CCC2(CC2)[C@H](O)C1)N1CCN(C(=O)Nc2ccc(Cl)c(Cl)c2)[C@@H](C)C1=O` [Example 112, Carbonic acid (S)-2-[(S)-4-(3,4-dichloro-phenylcarbamoyl)-3-methyl-2-oxo-piperazin-1-yl]-4-((S)-4-hydroxy-6-aza-spiro[2.5]oct-6-yl)-butyl ester methyl ester], the negative-log IC50 (pIC50) was 8.70.

For the molecule `CC(C)OC(=O)OC[C@H](CCN1CCC2(CC2)[C@H](O)C1)N1CCN(C(=O)Nc2ccc(Cl)c(Cl)c2)[C@@H](C)C1=O` [Example 113, Carbonic acid (S)-2-[(S)-4-(3,4-dichloro-phenylcarbamoyl)-3-methyl-2-oxo-piperazin-1-yl]-4-((S)-4-hydroxy-6-aza-spiro[2.5]oct-6-yl)-butyl ester isopropyl ester], the pIC50 is 9.00.

The values are drawn from patent publication US8071586B2, “Heterocyclyl compounds” (Hoffmann-La Roche Inc., priority 2008, dated 2011).
